Results: patent publication EP0483631A1, “3-Oxy substituted isoxazolines, process for their preparation and their utilization against Endoparasites” (BAYER AG, priority 1990, dated 1992)

How the values were obtained:
[1] = tested on: Trichostrongylus colubriformis; experiment: In vivo nematode test, Trichostrongylus colubriformis / sheep (faecal egg count before and after treatment); set-up: species or system Schaf; conditions: experimentally infected sheep, treated after the prepatent period, pure active ingredient in gelatine capsules, oral, dose giving complete cessation of egg excretion, read-out: Dosis effectiva
Description: Trichostrongylus colubriformis / Schaf
Experimentell mit Trichostrongylus colubriformis infizierte Schafe wurden nach Ablauf der Präpatenzzeit des Parasiten behandelt. Die Wirkstoffe wurden als reiner Wirkstoff in Gelatinekapseln oral appliziert.
Der Wirkungsgrad wird dadurch bestimmt, daß man die mit dem Kot ausgeschiedenen Wurmeier vor und nach der Behandlung quantitativ auszählt.
(§1) Ein völliges Sistieren der Eiausscheidung nach der Behandlung bedeutet, daß die Würmer abgetrieben wurden oder so geschädigt sind, daß sie keine Eier mehr produzieren (Dosis effectiva).
Geprüfte Wirkstoffe und wirksame Dosierungen (Dosis effectiva) sind aus der nachfolgenden Tabelle ersichtlich.

[2] = tested on: Haemonchus contortus; experiment: In vivo nematode test, Haemonchus contortus / sheep (faecal count before and after treatment); set-up: species or system Schaf; conditions: experimentally infected sheep, treated after the prepatent period, pure active ingredient in gelatine capsules, oral, dose giving complete cessation of egg excretion, read-out: Dosis effectiva
Description: Haemonchus contortus / Schaf
Experimentell mit Haemonchus contortus infizierte Schafe wurden nach Ablauf der Präpatenzzeit des Parasiten behandelt. Die Wirkstoffe wurden als reiner Wirkstoff in Gelatinekapseln oral appliziert.
Der Wirkungsgrad wird dadurch bestimmt, daß man die mit dem Kot ausgeschiedenen […] vor und nach der Behandlung quantitativ auszählt.
as §1
Geprüfte Wirkstoffe und wirksame Dosierungen (Dosis effectiva) sind aus der nachfolgenden Tabelle ersichtlich: […]

SMILES	minimal effective dose [1] [mg/kg]	minimal effective dose [2] [mg/kg]
CC(C)OC1=NOCC1NC(=O)c1ccccc1C(=O)O (stereo not drawn) [Beispiel 3]	25	10
COC1=NOC[C@H]1NC(=O)c1ccccc1C(=O)O [Beispiel 1, (R)-N-(4,5-Dihydro-3-methoxy-4-isoazolyl)-phthalamidsäure]	25	10
O=C(O)c1ccccc1C(=O)N[C@@H]1CON=C1OCc1cccc(Cl)c1 [Beispiel 2, (R)-N-[4-5-Dihydro-3-(-3-chlorphenyl)-methoxy-4-isoxazolyl]-phthalamidsäure]	25	10
